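Cultured in 96-well plates, cells were exposed to test compound for 48 hours across five concentrations. TGI: concentration producing complete growth inhibition.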
Legend:
Test in all cases: inhibition of tumour cell growth, NCI panel, 48 h
NCI-H522 lung = test system: NCI-H522 lung
NCI-H460 lung = test system: NCI-H460 lung
SK-OV-3 ovarian = test system: SK-OV-3 ovarian
IGROV1 ovarian = test system: IGROV1 ovarian
DMS 114 small cell lung = test system: DMS 114 small cell lung
RXF 393 renal = test system: RXF 393 renal
HL-60(TB) leukemia = test system: HL-60(TB) leukemia
SW-620 colon = test system: SW-620 colon
SK-MEL-28 melanoma = test system: SK-MEL-28 melanoma
HCC-2998 colon = test system: HCC-2998 colon
M19-MEL melanoma = test system: M19-MEL melanoma
OVCAR-4 ovarian = test system: OVCAR-4 ovarian
SNB-75 CNS = test system: SNB-75 CNS
SF-295 CNS = test system: SF-295 CNS
TK-10 renal = test system: TK-10 renal
DMS 273 small cell lung = test system: DMS 273 small cell lung
SK-MEL-2 melanoma = test system: SK-MEL-2 melanoma
SR leukemia = test system: SR leukemia
UACC-62 melanoma = test system: UACC-62 melanoma
786-0 renal = test system: 786-0 renal
HCT-116 colon = test system: HCT-116 colon
LXFL 529 NSCLC = test system: LXFL 529 NSCLC
MOLT-4 leukemia = test system: MOLT-4 leukemia
RXF-631 renal = test system: RXF-631 renal
A498 renal = test system: A498 renal
SF-268 CNS = test system: SF-268 CNS
MALME-3M melanoma = test system: MALME-3M melanoma
CAKI-1 renal = test system: CAKI-1 renal
U251 CNS = test system: U251 CNS
SK-MEL-5 melanoma = test system: SK-MEL-5 melanoma
M14 melanoma = test system: M14 melanoma
NCI-H226 lung = test system: NCI-H226 lung
UACC-257 melanoma = test system: UACC-257 melanoma
COLO 205 colon = test system: COLO 205 colon
SNB-78 CNS = test system: SNB-78 CNS
HT29 colon = test system: HT29 colon
ACHN renal = test system: ACHN renal
HOP-62 NSCLC = test system: HOP-62 NSCLC
SN12C renal = test system: SN12C renal
NCI-H23 lung = test system: NCI-H23 lung
HCT-15 colon = test system: HCT-15 colon
RPMI-8226 leukemia = test system: RPMI-8226 leukemia
UO-31 renal = test system: UO-31 renal
EKVX NSCLC = test system: EKVX NSCLC
DLD-1 colon = test system: DLD-1 colon
SNB-19 CNS = test system: SNB-19 CNS
OVCAR-8 ovarian = test system: OVCAR-8 ovarian
OVCAR-3 ovarian = test system: OVCAR-3 ovarian
A549 NSCLC = test system: A549 NSCLC
OVCAR-5 ovarian = test system: OVCAR-5 ovarian
KM20L2 colon = test system: KM20L2 colon
KM12 colon = test system: KM12 colon
SF-539 CNS = test system: SF-539 CNS
CCRF-CEM leukemia = test system: CCRF-CEM leukemia
HOP-18 NSCLC = test system: HOP-18 NSCLC
HOP-92 NSCLC = test system: HOP-92 NSCLC
K-562 leukemia = test system: K-562 leukemia
LOX IMVI melanoma = test system: LOX IMVI melanoma

## COC(=O)[C@@H](C)[C@H]1CC[C@@](C)(CCC2=C(C)CC3C=C(C)CCC3C2(C)C)OO1 (some centres undefined)
NCI-H522 lung
  TGI: 0.331 µM
NCI-H460 lung
  TGI: 3.57 µM
SK-OV-3 ovarian
  TGI: 3.87 µM
IGROV1 ovarian
  TGI: 3.06 µM
DMS 114 small cell lung
  TGI: 4.04 µM
RXF 393 renal
  TGI: 2.84 µM
HL-60(TB) leukemia
  TGI: 0.449 µM
SW-620 colon
  TGI: 1.01 µM
SK-MEL-28 melanoma
  TGI: 3.22 µM
HCC-2998 colon
  TGI: 2.65 µM
M19-MEL melanoma
  TGI: 3.75 µM
OVCAR-4 ovarian
  TGI: 3 µM
SNB-75 CNS
  TGI: 2.94 µM
SF-295 CNS
  TGI: 3.2 µM
TK-10 renal
  TGI: 3.31 µM
DMS 273 small cell lung
  TGI: 4.43 µM
SK-MEL-2 melanoma
  TGI: 3.32 µM
SR leukemia
  TGI: 3.87 µM
UACC-62 melanoma
  TGI: 3.86 µM
786-0 renal
  TGI: 0.263 µM
HCT-116 colon
  TGI: 3.81 µM
LXFL 529 NSCLC
  TGI: 2.2 µM
MOLT-4 leukemia
  TGI: 2.75 µM
RXF-631 renal
  TGI: 4.63 µM
A498 renal
  TGI: 3.19 µM
SF-268 CNS
  TGI: 3.76 µM
MALME-3M melanoma
  TGI: 3.96 µM
CAKI-1 renal
  TGI: 2.71 µM
U251 CNS
  TGI: 2.73 µM
SK-MEL-5 melanoma
  TGI: 2.87 µM
M14 melanoma
  TGI: 3.13 µM
NCI-H226 lung
  TGI: 4.13 µM
UACC-257 melanoma
  TGI: 7.61 µM
COLO 205 colon
  TGI: 4.38 µM
SNB-78 CNS
  TGI: 4.76 µM
HT29 colon
  TGI: 2.96 µM
ACHN renal
  TGI: 2.87 µM
HOP-62 NSCLC
  TGI: 3.72 µM
SN12C renal
  TGI: 2.36 µM
NCI-H23 lung
  TGI: 3.49 µM
HCT-15 colon
  TGI: 2.82 µM
RPMI-8226 leukemia
  TGI: 5.98 µM
UO-31 renal
  TGI: 2.76 µM
EKVX NSCLC
  TGI: 3.03 µM
DLD-1 colon
  TGI: 2.54 µM
SNB-19 CNS
  TGI: 3.16 µM
OVCAR-8 ovarian
  TGI: 4.09 µM
OVCAR-3 ovarian
  TGI: 3.42 µM
A549 NSCLC
  TGI: 3.12 µM
OVCAR-5 ovarian
  TGI: 3.27 µM
KM20L2 colon
  TGI: 3.13 µM
KM12 colon
  TGI: 2.9 µM
SF-539 CNS
  TGI: 3.27 µM
CCRF-CEM leukemia
  TGI: 0.39 µM

## COC(=O)C(CC(=O)Nc1ccc(Cl)c(Cl)c1)C(=O)C(=O)Nc1ccc(Cl)c(Cl)c1 (centres undefined)
NCI-H522 lung
  TGI: > 100 µM
NCI-H460 lung
  TGI: > 100 µM
SK-OV-3 ovarian
  TGI: > 100 µM
IGROV1 ovarian
  TGI: > 100 µM
DMS 114 small cell lung
  TGI: > 100 µM
RXF 393 renal
  TGI: > 100 µM
HL-60(TB) leukemia
  TGI: > 100 µM
SW-620 colon
  TGI: > 100 µM
SK-MEL-28 melanoma
  TGI: > 100 µM
HCC-2998 colon
  TGI: > 100 µM
M19-MEL melanoma
  TGI: > 100 µM
OVCAR-4 ovarian
  TGI: > 100 µM
SNB-75 CNS
  TGI: > 100 µM
SF-295 CNS
  TGI: > 100 µM
TK-10 renal
  TGI: > 100 µM
DMS 273 small cell lung
  TGI: > 100 µM
SK-MEL-2 melanoma
  TGI: > 100 µM
HOP-18 NSCLC
  TGI: > 100 µM
SR leukemia
  TGI: > 100 µM
UACC-62 melanoma
  TGI: > 100 µM
786-0 renal
  TGI: > 100 µM
HCT-116 colon
  TGI: > 100 µM
LXFL 529 NSCLC
  TGI: > 100 µM
MOLT-4 leukemia
  TGI: > 100 µM
RXF-631 renal
  TGI: > 100 µM
HOP-92 NSCLC
  TGI: > 100 µM
A498 renal
  TGI: > 100 µM
SF-268 CNS
  TGI: > 100 µM
MALME-3M melanoma
  TGI: > 100 µM
K-562 leukemia
  TGI: > 100 µM
CAKI-1 renal
  TGI: > 100 µM
U251 CNS
  TGI: > 100 µM
SK-MEL-5 melanoma
  TGI: > 100 µM
M14 melanoma
  TGI: > 100 µM
NCI-H226 lung
  TGI: > 100 µM
UACC-257 melanoma
  TGI: > 100 µM
COLO 205 colon
  TGI: > 100 µM
SNB-78 CNS
  TGI: > 100 µM
HT29 colon
  TGI: > 100 µM
ACHN renal
  TGI: > 100 µM
HOP-62 NSCLC
  TGI: > 100 µM
SN12C renal
  TGI: > 100 µM
NCI-H23 lung
  TGI: > 100 µM
HCT-15 colon
  TGI: > 100 µM
RPMI-8226 leukemia
  TGI: > 100 µM
UO-31 renal
  TGI: > 100 µM
EKVX NSCLC
  TGI: > 100 µM
LOX IMVI melanoma
  TGI: > 100 µM
SNB-19 CNS
  TGI: > 100 µM
OVCAR-8 ovarian
  TGI: > 100 µM
OVCAR-3 ovarian
  TGI: > 100 µM
A549 NSCLC
  TGI: > 100 µM
OVCAR-5 ovarian
  TGI: > 100 µM
KM20L2 colon
  TGI: > 100 µM
KM12 colon
  TGI: > 100 µM
SF-539 CNS
  TGI: > 100 µM
CCRF-CEM leukemia
  TGI: > 100 µM

## COc1cc(C(C)c2cc3c(cc2OCCNC(=O)COc2cc4c(cc2C(C)c2cc(OC)c(OC)c(OC)c2)OCO4)OCO3)cc(OC)c1OC (centres undefined)
NCI-H522 lung
  TGI: 92.6 µM
NCI-H460 lung
  TGI: 49 µM
IGROV1 ovarian
  TGI: > 100 µM
DMS 114 small cell lung
  TGI: > 100 µM
RXF 393 renal
  TGI: > 100 µM
HL-60(TB) leukemia
  TGI: > 100 µM
SW-620 colon
  TGI: > 100 µM
SK-MEL-28 melanoma
  TGI: > 100 µM
HCC-2998 colon
  TGI: > 100 µM
M19-MEL melanoma
  TGI: > 100 µM
OVCAR-4 ovarian
  TGI: > 100 µM
SNB-75 CNS
  TGI: > 100 µM
SF-295 CNS
  TGI: > 100 µM
TK-10 renal
  TGI: > 100 µM
DMS 273 small cell lung
  TGI: > 100 µM
SK-MEL-2 melanoma
  TGI: > 100 µM
SR leukemia
  TGI: > 100 µM
UACC-62 melanoma
  TGI: > 100 µM
786-0 renal
  TGI: > 100 µM
HCT-116 colon
  TGI: > 100 µM
LXFL 529 NSCLC
  TGI: > 100 µM
MOLT-4 leukemia
  TGI: 71.8 µM
RXF-631 renal
  TGI: > 100 µM
A498 renal
  TGI: > 100 µM
SF-268 CNS
  TGI: > 100 µM
MALME-3M melanoma
  TGI: > 100 µM
K-562 leukemia
  TGI: > 100 µM
CAKI-1 renal
  TGI: > 100 µM
U251 CNS
  TGI: > 100 µM
SK-MEL-5 melanoma
  TGI: > 100 µM
M14 melanoma
  TGI: > 100 µM
NCI-H226 lung
  TGI: > 100 µM
UACC-257 melanoma
  TGI: > 100 µM
COLO 205 colon
  TGI: > 100 µM
HT29 colon
  TGI: > 100 µM
ACHN renal
  TGI: > 100 µM
HOP-62 NSCLC
  TGI: > 100 µM
SN12C renal
  TGI: > 100 µM
NCI-H23 lung
  TGI: > 100 µM
HCT-15 colon
  TGI: > 100 µM
UO-31 renal
  TGI: > 100 µM
EKVX NSCLC
  TGI: > 100 µM
DLD-1 colon
  TGI: > 100 µM
LOX IMVI melanoma
  TGI: > 100 µM
SNB-19 CNS
  TGI: > 100 µM
OVCAR-8 ovarian
  TGI: > 100 µM
OVCAR-3 ovarian
  TGI: > 100 µM
A549 NSCLC
  TGI: > 100 µM
OVCAR-5 ovarian
  TGI: > 100 µM
KM20L2 colon
  TGI: > 100 µM
KM12 colon
  TGI: > 100 µM
SF-539 CNS
  TGI: > 100 µM
CCRF-CEM leukemia
  TGI: > 100 µM

From PubChem BioAssay (NCI)
